Laboratory results reported in paper PMC11532494 (Nature Communications, 2024).
Values joined by “and” are separate entries in the source; they are usually repeats but may differ in a detail not shown here. Identical values can stand only once.

Tests used:
LpApaH (3) = LpApaH (3) (Legionella pneumophila, UniProt A0A2S6EWV0); assay type: biochemical
KpHdaH (1b) = KpHdaH (1b) (Klebsiella pneumoniae, UniProt A0A377Z5F6); assay type: biochemical; conditions: KpKDAC (1b); single samples (replicates)
RwDmhA (1b) = RwDmhA (1b) (Rhizorhabdus wittichii, UniProt A0A067XIQ6); assay type: biochemical; conditions: RwDmhA (1b) 3µM; single samples (replicates)
LcApaH (3) = LcApaH (3) (Legionella cherrii, UniProt A0A0W0SGS1); assay type: biochemical
RsPrpH (1b) = assay: Acetyl-polyamine deacetylase assay; assay type: biochemical, Rhizorhabdus sp.; conditions: RsPrpH 3µM; single samples (replicates)
BsAcuC (2c) = target: T1, BsAcuC (2c) (Bacillus subtilis, UniProt P39067); assay: Acetyl-polyamine deacetylase assay; assay type: biochemical; conditions: BsAcuC (2c) 3µM; single samples (replicates)
T1 construct: made in house; host or cells: E. coli BL21 (DE3)
T1 sequence (P39067 1-387): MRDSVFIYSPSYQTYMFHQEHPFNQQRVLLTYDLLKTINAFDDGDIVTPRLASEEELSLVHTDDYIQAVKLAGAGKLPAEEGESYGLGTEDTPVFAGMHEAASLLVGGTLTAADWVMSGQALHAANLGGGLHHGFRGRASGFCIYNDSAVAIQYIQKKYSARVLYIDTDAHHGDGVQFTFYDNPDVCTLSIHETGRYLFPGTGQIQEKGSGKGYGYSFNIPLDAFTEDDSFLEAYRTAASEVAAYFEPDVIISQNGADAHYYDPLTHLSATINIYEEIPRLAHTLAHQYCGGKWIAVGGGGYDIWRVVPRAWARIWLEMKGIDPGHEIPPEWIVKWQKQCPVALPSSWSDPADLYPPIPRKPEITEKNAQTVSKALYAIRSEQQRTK

VcHdaH (5b) = assay: Acetyl-polyamine deacetylase assay; assay type: biochemical, Vibrio cholerae; conditions: VcHdaH (5b) 6µM; single samples (replicates)
VsHdaH (1b) = assay type: biochemical, Vibrio sp.; conditions: VsHdaH (1b) 3µM; single samples (replicates)
PA1409 = PA1409 (Pseudomonas aeruginosa, UniProt Q9I3T5); assay: Acetyl-polyamine deacetylase assay (positive control); assay type: biochemical; conditions: for acetate released, g/l / acetate released, mM / mM normalized to enzyme concentration: PA1409 (positive control enzyme), single samples (replicates); for A1-A2: absorbance difference between the two time points; for A1-A2 / (A1-A2)-B: sheet Figure 2d; for (A1-A2)-B: absorbance difference minus mean blank
PsApaH (4) = PsApaH (4) (Pseudomonas sp. M30-35, UniProt A0A1Y0KY79); assay: Acetyl-polyamine deacetylase assay; assay type: biochemical; conditions: single samples (replicates)
Sequence of PsApaH (4) (A0A1Y0KY79 1-342 limits assumed): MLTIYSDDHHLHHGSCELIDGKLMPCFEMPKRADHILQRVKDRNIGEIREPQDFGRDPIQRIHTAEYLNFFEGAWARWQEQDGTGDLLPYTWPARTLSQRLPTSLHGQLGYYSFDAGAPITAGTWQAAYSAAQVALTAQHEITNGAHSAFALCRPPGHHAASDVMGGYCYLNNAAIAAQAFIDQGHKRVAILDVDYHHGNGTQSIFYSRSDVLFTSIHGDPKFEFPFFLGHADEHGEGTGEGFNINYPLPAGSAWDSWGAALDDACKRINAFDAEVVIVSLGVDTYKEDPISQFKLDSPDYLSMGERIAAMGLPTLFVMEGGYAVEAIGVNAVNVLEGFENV

Sequence of PA1409 (Q9I3T5 whole entry): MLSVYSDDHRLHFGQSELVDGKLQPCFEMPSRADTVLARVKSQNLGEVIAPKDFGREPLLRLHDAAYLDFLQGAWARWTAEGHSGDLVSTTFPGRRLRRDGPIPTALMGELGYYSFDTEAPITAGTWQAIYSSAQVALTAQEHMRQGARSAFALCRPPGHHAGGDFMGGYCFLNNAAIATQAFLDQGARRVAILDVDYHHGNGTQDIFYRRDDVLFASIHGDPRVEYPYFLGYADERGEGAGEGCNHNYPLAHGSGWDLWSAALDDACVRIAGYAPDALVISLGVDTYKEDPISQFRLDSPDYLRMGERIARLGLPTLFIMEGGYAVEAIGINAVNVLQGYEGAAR
Sequence of LcApaH (3) (A0A0W0SGS1 1-425): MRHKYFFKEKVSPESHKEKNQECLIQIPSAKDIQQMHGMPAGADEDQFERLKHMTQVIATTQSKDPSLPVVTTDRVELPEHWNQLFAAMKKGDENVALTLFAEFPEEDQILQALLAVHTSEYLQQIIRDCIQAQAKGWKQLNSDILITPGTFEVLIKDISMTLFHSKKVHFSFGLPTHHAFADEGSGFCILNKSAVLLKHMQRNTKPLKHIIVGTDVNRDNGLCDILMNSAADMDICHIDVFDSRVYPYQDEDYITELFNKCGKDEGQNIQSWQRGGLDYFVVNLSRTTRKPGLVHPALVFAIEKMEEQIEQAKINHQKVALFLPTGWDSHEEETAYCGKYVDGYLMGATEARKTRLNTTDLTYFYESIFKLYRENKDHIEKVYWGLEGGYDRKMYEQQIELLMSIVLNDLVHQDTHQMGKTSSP
Sequence of KpHdaH (1b) (A0A377Z5F6 1-371): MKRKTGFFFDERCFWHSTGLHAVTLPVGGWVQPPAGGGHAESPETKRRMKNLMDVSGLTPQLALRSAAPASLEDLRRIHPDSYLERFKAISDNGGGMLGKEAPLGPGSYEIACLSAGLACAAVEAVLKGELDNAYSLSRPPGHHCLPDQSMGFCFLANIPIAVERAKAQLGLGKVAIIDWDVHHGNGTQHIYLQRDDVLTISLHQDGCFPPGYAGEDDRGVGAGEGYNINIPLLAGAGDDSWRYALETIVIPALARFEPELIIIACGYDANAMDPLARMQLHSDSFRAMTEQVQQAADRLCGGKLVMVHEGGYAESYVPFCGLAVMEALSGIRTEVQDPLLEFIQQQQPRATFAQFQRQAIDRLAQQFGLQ
Sequence of RwDmhA (1b) (A0A067XIQ6 1-369): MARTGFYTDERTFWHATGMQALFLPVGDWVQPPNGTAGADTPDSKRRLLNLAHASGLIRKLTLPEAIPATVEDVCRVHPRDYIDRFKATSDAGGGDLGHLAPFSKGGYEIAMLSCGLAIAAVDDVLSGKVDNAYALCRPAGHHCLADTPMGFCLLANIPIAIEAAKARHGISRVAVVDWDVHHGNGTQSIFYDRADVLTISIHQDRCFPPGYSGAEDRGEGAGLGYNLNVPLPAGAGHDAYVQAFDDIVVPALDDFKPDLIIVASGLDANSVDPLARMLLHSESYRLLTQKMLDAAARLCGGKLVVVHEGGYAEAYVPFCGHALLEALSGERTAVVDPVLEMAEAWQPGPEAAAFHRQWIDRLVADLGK
Sequence of LpApaH (3) (A0A2S6EWV0 1-426): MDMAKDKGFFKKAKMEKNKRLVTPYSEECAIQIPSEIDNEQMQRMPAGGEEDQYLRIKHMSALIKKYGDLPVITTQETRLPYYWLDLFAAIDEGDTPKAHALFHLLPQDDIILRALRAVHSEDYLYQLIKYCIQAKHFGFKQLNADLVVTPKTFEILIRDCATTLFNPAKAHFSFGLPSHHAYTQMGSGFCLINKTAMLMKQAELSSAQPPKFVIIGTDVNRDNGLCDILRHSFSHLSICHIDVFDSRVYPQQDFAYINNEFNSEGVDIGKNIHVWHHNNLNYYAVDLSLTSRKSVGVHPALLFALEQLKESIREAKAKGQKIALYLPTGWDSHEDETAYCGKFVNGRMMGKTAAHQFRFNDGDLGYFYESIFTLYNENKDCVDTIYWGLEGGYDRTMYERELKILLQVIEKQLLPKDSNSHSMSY

SMILES | acetate released, g/l (KpHdaH (1b)) | acetate released, mM (KpHdaH (1b)) | mM normalized to enzyme concentration (KpHdaH (1b)) | acetate released, g/l (RwDmhA (1b)) | acetate released, mM (RwDmhA (1b)) | mM normalized to enzyme concentration (RwDmhA (1b)) | acetate released, g/l (LcApaH (3)) | acetate released, mM (LcApaH (3)) | acetate released, g/l (RsPrpH (1b)) | acetate released, mM (RsPrpH (1b)) | mM normalized to enzyme concentration (RsPrpH (1b)) | acetate released, g/l (BsAcuC (2c)) | acetate released, mM (BsAcuC (2c)) | mM normalized to enzyme concentration (BsAcuC (2c)) | acetate released, g/l (VcHdaH (5b)) | acetate released, mM (VcHdaH (5b)) | mM normalized to enzyme concentration (VcHdaH (5b)) | acetate released, g/l (VsHdaH (1b)) | acetate released, mM (VsHdaH (1b)) | mM normalized to enzyme concentration (VsHdaH (1b)) | other results
CC(=O)NCCCNCCCCNCCCNC(C)=O [N1/N12 diacetyl-spermine] | 0.007868 g/L and 0.006091 g/L and 0.003807 g/L | 0.131 mM and 0.1014 mM and 0.0634 mM | 0.0262 mM and 0.02029 mM and 0.01268 mM | 0.001697 g/L and 0.004569 g/L | 0.02826 mM and 0.07609 mM | 0.00942 mM and 0.02536 mM | 0.00344 g/L | 0.06 mM | 0.002219 g/L and 0.001175 g/L | 0.03696 mM and 0.01957 mM | 0.01232 mM and 0.006522 mM | 0.003525 g/L and 0.003264 g/L and -0.001436 g/L | 0.0587 mM and 0.05435 mM and -0.02391 mM | 0.01957 mM and 0.01812 mM and -0.007971 mM | 0.001436 g/L and 0.0001305 g/L and 0.0006527 g/L | 0.02391 mM and 0.002174 mM and 0.01087 mM | 0.003986 mM and 0.0003623 mM and 0.001812 mM | 0.00248 g/L and 0.0003916 g/L | 0.0413 mM and 0.006522 mM | 0.01377 mM and 0.002174 mM and 0.003623 mM | acetate released, g/l (LpApaH (3)): 0.003439 g/L and 0.00291 g/L; acetate released, mM (LpApaH (3)): 0.05727 mM and 0.04846 mM; mM normalized to enzyme concentration (LpApaH (3)): 0.02863 mM and 0.02423 mM; mM normalized to enzyme concentration (LcApaH (3)): 0.06 mM; acetate released, g/l (PA1409): 0.2048 g/L and 0.2032 g/L; acetate released, mM (PA1409): 3.41 mM and 3.383 mM; mM normalized to enzyme concentration (PA1409): 34.0974 mM and 33.8331 mM
CC(=O)NCCCCN [N1-acetyl-putrescine] | 0.01615 g/L and 0.02135 g/L and 0.02198 g/L | 0.2105 mM and 0.2784 mM and 0.2865 mM | 0.02105 mM and 0.02784 mM and 0.02865 mM | 0.001436 g/L and 0.006919 g/L and 0.0009138 g/L | 0.02391 mM and 0.1152 mM and 0.01522 mM | 0.007971 mM and 0.03841 mM and 0.005072 mM | 0.002824 g/L and 0.001479 g/L | 0.04702 mM and 0.02463 mM | 0.003525 g/L and 0.00483 g/L and 0.003003 g/L | 0.0587 mM and 0.08044 mM and 0.05 mM | 0.01957 mM and 0.02681 mM and 0.01667 mM | 0.001436 g/L and 0.00248 g/L and -0.003264 g/L | 0.02391 mM and 0.0413 mM and -0.05435 mM | 0.007971 mM and 0.01377 mM and -0.01812 mM | -0.003786 g/L and 0.0001305 g/L and 0.01136 g/L | -0.06304 mM and 0.002174 mM and 0.1891 mM | -0.01051 mM and 0.0003623 mM and 0.03152 mM | 0.001436 g/L and 0.0003916 g/L and -0.0006527 g/L | 0.02391 mM and 0.006522 mM and -0.01087 mM | 0.007971 mM and 0.002174 mM and -0.003623 mM | mM normalized to enzyme concentration (LcApaH (3)): 0.03135 mM and 0.01642 mM; A1-A2 (PA1409): 0.278 and 0.275; (A1-A2)-B (PA1409): 0.21 and 0.207
CC(=O)NCCCCNCCCN [N8-acetyl-spermidine] | -0.006957 g/L and 0.01217 g/L and 0.008116 g/L | -0.1158 mM and 0.2027 mM and 0.1352 mM | -0.02317 mM and 0.04055 mM and 0.02703 mM | 0.005875 g/L and 0.0006527 g/L | 0.09783 mM and 0.01087 mM | 0.02246 mM and 0.03261 mM and 0.003623 mM | 0.008058 g/L and 0.009115 g/L | 0.1342 mM and 0.1518 mM | 0.01005 g/L and 0.01371 g/L and 0.01762 g/L | 0.1674 mM and 0.2283 mM and 0.2935 mM | 0.0558 mM and 0.07609 mM and 0.09783 mM | 0.006919 g/L and 0.003003 g/L and 0.003525 g/L | 0.1152 mM and 0.05 mM and 0.0587 mM | 0.03841 mM and 0.01667 mM and 0.01957 mM | 0.002219 g/L and 0.004047 g/L and 0.004569 g/L | 0.03696 mM and 0.06739 mM and 0.07609 mM | 0.006159 mM and 0.01123 mM and 0.01268 mM | 0.002742 g/L and 0.003003 g/L | 0.04565 mM and 0.05 mM | 0.01522 mM and 0.01667 mM and 0.02536 mM | acetate released, g/l (LpApaH (3)): 0.00515 g/L and 0.00674 g/L; acetate released, mM (LpApaH (3)): 0.09 mM and 0.11 mM; mM normalized to enzyme concentration (LpApaH (3)): 0.0429 mM and 0.0561 mM; mM normalized to enzyme concentration (LcApaH (3)): 0.1342 mM and 0.1518 mM; A1-A2 (PA1409): 0.581 and 0.564; (A1-A2)-B (PA1409): 0.5395 and 0.5225; acetate released, g/l (PsApaH (4)): 0.04138 g/L and 0.04164 g/L and 0.04191 g/L; acetate released, mM (PsApaH (4)): 0.6891 mM and 0.6935 mM and 0.6978 mM
CC(=O)NCCCNCCCCN [N1-acetyl-spermidine] | 0.007111 g/L and 0.006667 g/L |  | 0.02368 mM and 0.0222 mM | -0.0001305 g/L and -0.0003916 g/L | -0.002174 mM and -0.006522 mM | -0.0007246 mM and -0.002174 mM |  |  | 0.0006527 g/L and 0.002219 g/L | 0.01087 mM and 0.03696 mM | 0.003623 mM and 0.01232 mM | 0.001175 g/L and 0.0003916 g/L | 0.01957 mM and 0.006522 mM | 0.006522 mM and 0.002174 mM | -0.0009138 g/L and 0.0001305 g/L | -0.01522 mM and 0.002174 mM | -0.002536 mM and 0.0003623 mM | -0.0001305 g/L | -0.002174 mM | -0.0007246 mM | A1-A2 (PA1409): 0.377 and 0.374; (A1-A2)-B (PA1409): 0.331 and 0.328; acetate released, g/l (PsApaH (4)): 0.0007937 g/L and 0.001587 g/L; acetate released, mM (PsApaH (4)): 0.01322 mM and 0.02643 mM
CC(=O)NCCCNCCCCNCCCN [N1-acetyl-spermine] | 0.02153 g/L and 0.02371 g/L and 0.03188 g/L | 0.3585 mM and 0.3948 mM and 0.5309 mM | 0.07169 mM and 0.07895 mM and 0.1062 mM | 0.0001305 g/L | 0.002174 mM and -0.002174 mM | -0.01812 mM and 0.0007246 mM and -0.0007246 mM |  |  | -0.0006527 g/L and -0.0001305 g/L and -0.004569 g/L | -0.01087 mM and -0.002174 mM and -0.07609 mM | -0.003623 mM and -0.0007246 mM and -0.02536 mM | 0.002742 g/L and 0.0001305 g/L | 0.04565 mM and 0.002174 mM | 0.01522 mM and 0.0007246 mM | -0.0009138 g/L and -0.003003 g/L and -0.003264 g/L | -0.01522 mM and -0.05 mM and -0.05435 mM | -0.002536 mM and -0.008333 mM and -0.009058 mM | -0.003525 g/L and 0.003264 g/L and 0.003525 g/L | -0.0587 mM and 0.05435 mM and 0.0587 mM | -0.01957 mM and 0.01812 mM and 0.01957 mM | acetate released, g/l (PA1409): 0.1471 g/L and 0.1516 g/L; acetate released, mM (PA1409): 2.449 mM and 2.524 mM; mM normalized to enzyme concentration (PA1409): 24.4938 mM and 25.2427 mM
